Here are results for 73 molecules from ChEMBL document CHEMBL3507680, “University of Dundee, Gates Library screen for HepG2 cell viability”.

The series can be described thus: Human HepG2 cell viability assay in 384 well format. It counts as toxicity, cell-based. The arrangement: dose 125 nL, time 70.5 hour; cytotoxicity at 70.5 h: concentration not given beside the values. The settings on record: HepG2 cells, read-out: Inhibition.

Molecules are shown by their SMILES.

With `CCSc1cc(C(=O)N(C(C)C)C2CC2)ccn1`, the cytotoxicity at 70.5 h was -3.36%. Regarding `CCn1cc(CN2CCCN(C(=O)C3(C#N)CCCCC3)CC2)cn1`, the cytotoxicity at 70.5 h worked out at 17.8%. As for `COc1ccc(C)cc1CCNS(=O)(=O)c1ccc2c(c1)CCC(=O)N2`, the cytotoxicity at 70.5 h is -18.5%. To `CCN(CC1COc2ccccc2O1)C(=O)C1=NN(C)C(=O)CC1` (stereo not drawn) belongs -2.86%. On to `CCC(NS(=O)(=O)N1CCOCC1)c1ccccc1OC` (stereo not drawn), for which the cytotoxicity at 70.5 h was -2.95%. Then `O=C(Cn1nnn(-c2cccs2)c1=O)N(CC1CCOC1)C1CC1` (stereo not drawn), with -9.03%. Then `COCC(C)N(C)C(=O)CCc1c(C)nc2c(C#N)cnn2c1C` (stereo not drawn), with 3.69%; and `Cc1ccc(NCCCNC(=O)NCc2c(C)cc(C)[nH]c2=O)nc1`, with -10.4%; and `Cc1cc(C)c(CNC(=O)NCCCNc2ccccn2)c(=O)[nH]1`, with 6.35%. To `COc1ccc(C(C)NS(=O)(=O)c2ccc3c(c2)CCC(=O)N3)cc1F` (stereo not drawn) belongs 12.7%; to `Cc1nc2c(C#N)cnn2c(C)c1CCC(=O)N(C)C1CC1`, 8.54%. Regarding `COCCCN(C)S(=O)(=O)c1ccc(Cl)cc1C#N`, the cytotoxicity at 70.5 h is -14.2%. For the molecule `CSCC(C)N(C)S(=O)(=O)c1ccc(Cl)cc1C#N` (stereo not drawn), the cytotoxicity at 70.5 h was -5.66%. Take `CCC(CNC(=O)Cc1cc(C)on1)Oc1cccc(F)c1` (stereo not drawn): the cytotoxicity at 70.5 h was 0.445%. To `CC(C)SCc1cccc(NC(=O)NCCc2nnc[nH]2)c1` belongs 11.5%; to `CCC(O)CN(Cc1ccccc1)S(=O)(=O)c1cnc(C)s1` (stereo not drawn), -9.64%. In the case of `CN(CC1COc2ccccc2O1)C(=O)C1=NN(C)C(=O)CC1` (stereo not drawn), the cytotoxicity at 70.5 h stood at 8.57%. As for `COCCOc1ncccc1C(=O)N(C)c1ccc(OC)nc1`, the cytotoxicity at 70.5 h was -8.37%. Then `CCCC(C#N)NC(=O)CCCOc1cccc(C(C)=O)c1` (stereo not drawn), with 18%; and `CCCN(CC1COc2ccccc2O1)C(=O)C1=NN(C)C(=O)CC1` (stereo not drawn), with -9.94%; and `COCC(=O)N(CCC(=O)OC)CC1CCCO1` (stereo not drawn), with -10.3%. To `COc1ccc(CN2CCN(S(=O)(=O)c3cc(C(=O)O)cs3)CC2)cc1` belongs -18.9%; to `O=C(NCCN1CCOCC1)c1ccn(-c2ccccc2F)n1`, -2.56%; to `O=C(CC1CCN(c2ncnc3cccc(F)c23)CC1)N1CCCC1`, -24.3%. Then `COCC(=O)N1CCN(c2ncnc3cccc(F)c23)CC1`, with 0.217%; and `O=C(C1CCN(c2ncnc3cccc(F)c23)CC1)N1CCCC1`, with 8.28%. On to `N#CC1(NC(=O)c2nccc3ccccc23)CCC1`, for which the cytotoxicity at 70.5 h is -8.96%. For `NCC1(c2cccc(C(F)(F)F)c2)CCCC1`, the cytotoxicity at 70.5 h turned out to be 15.4%. In the case of `CC(NCc1ccc(-c2ccc(Cl)cc2)o1)c1nnc2n1CCC2` (stereo not drawn), the cytotoxicity at 70.5 h was -4.6%. Turning to `CCc1nc(CCNC(=O)NC2CCC(=O)N(C)C2)sc1C` (stereo not drawn), the cytotoxicity at 70.5 h is -8.41%.

In the case of `CCCn1nc2c(cc1=O)CN(Cc1ncc(C(C)(C)C)o1)CC2`, the cytotoxicity at 70.5 h was -4.85%.

In the case of `CCn1nc2c(cc1=O)CN(Cc1cc(C)on1)CC2`, the cytotoxicity at 70.5 h was -3.67%. Take `COc1cccc(CN(C)Cc2ccccc2C#N)c1OC`: the cytotoxicity at 70.5 h is -1.91%. Then `CC(C(=O)Nc1ccnn1C(C)C)N1CCN(Cc2ccccc2)CC1` (stereo not drawn), with -7.81%; and `CC(NCc1cc2cc(F)ccc2o1)c1nnc2n1CCCC2` (stereo not drawn), with -5.97%. To `NC(=O)c1cccc(NC(=O)CSc2ccc3c(c2)CCC3)c1` belongs -1.16%; to `O=C(c1ccccc1)C1CCN(c2cncc(-n3cccn3)n2)CC1`, 1.36%; to `CCN1CCC(CNCc2cc(C)ccc2OC)C1` (stereo not drawn), -8.51%. `COC(=O)c1ccc(NC(=O)CN2CCCCC2C2OCCO2)cc1` (stereo not drawn): the cytotoxicity at 70.5 h was 0.785%. `CNC(=O)c1cnc(/C=C/c2cc(OC)c(O)c(OC)c2)s1`: the cytotoxicity at 70.5 h is -12.6%. Turning to `Cc1ccc(-n2nnc(C(=O)NCCS(N)(=O)=O)c2C2CC2)cc1`, the cytotoxicity at 70.5 h was -18.3%. Then `COc1ccc(NC(=O)c2ccco2)c(N2CCN(C(C)=O)CC2)n1`, with -11.7%; and `CCS(=O)(=O)N(C)C1CCN(C(=O)c2ccc(Cl)cc2)CC1`, with -15.5%. To `CCS(=O)(=O)N(C)C1CCN(C(=O)c2ccc(C)c(C)c2)CC1` belongs -8.23%; to `CN(CC(=O)Nc1nncs1)CC1CCCN1c1cccnn1` (stereo not drawn), 4.97%. To `Cc1cc(C)n(-c2cncc(N3CCN(C(=O)CN(C)C)CC3)n2)n1` belongs -11.6%. `COCc1nc2cc(NCc3nc(C)cs3)ccc2o1`: the cytotoxicity at 70.5 h was -2.56%. To `COCc1nc2cc(NCc3ccc(CO)o3)ccc2o1` belongs 14.6%. Then `NC(=O)C1CCN(C(=O)C2SCCc3sccc32)CC1` (stereo not drawn), with -10.3%; and `O=C(C1SCCc2sccc21)N1CCN(CC(F)F)CC1` (stereo not drawn), with -5.33%. Take `O=C(C1SCCc2sccc21)N1CCN(C2CC2)C(=O)C1` (stereo not drawn): the cytotoxicity at 70.5 h is -5.13%. To `O=C(NCC1(CO)CC1)c1nnn(-c2ccc(F)cc2)c1C1CC1` belongs -4.26%.

In the case of `CN1C(=O)c2ccc(NC(=O)CSc3ccc4c(c3)CCC4)cc2C1=O`, the cytotoxicity at 70.5 h was -3.82%.

Take `COCc1nc2cc(NCc3csc(C)n3)ccc2o1`: the cytotoxicity at 70.5 h is 3.55%. Turning to `Cc1ccc(C(CNCc2cccn2C)N2CCOCC2)s1` (stereo not drawn), the cytotoxicity at 70.5 h was -4.6%. As for `CCN(C(=O)CN1CCCC1Cc1ccccc1)c1ccccc1` (stereo not drawn), the cytotoxicity at 70.5 h stood at 8.48%. To `CN(C)C(=O)c1cccc(NC(=O)CN2CCCCC2C2OCCO2)c1` (stereo not drawn) belongs -5.7%. Then `COc1ccc(CNCC2CCN(CCO)CC2)cc1F`, with -5.24%. Then `CCN(C1CCN(C(=O)c2cccc(Cl)c2)CC1)S(C)(=O)=O`, with -6.65%; and `CCOc1ccc(CNC(C)c2cccc(S(=O)(=O)NC)c2)cc1` (stereo not drawn), with -9.92%; and `CCn1cc(CNCC(c2ccc(C)s2)N2CCOCC2)cn1` (stereo not drawn), with -7.64%. For `CCN1CCOC(CNCc2ccc(OC)c(F)c2)C1` (stereo not drawn), the cytotoxicity at 70.5 h was -6.46%. Then `CNS(=O)(=O)c1cccc(C(C)NCc2ccco2)c1` (stereo not drawn), with -8.45%; and `CCC1CN(CC(=O)NCc2ccco2)CCO1` (stereo not drawn), with 2.02%; and `FC(F)(F)C1CCCn2c(CNCc3ccco3)nnc21` (stereo not drawn), with 35.4%. To `CN(CC(=O)N1CCCC1c1noc(C2CC2)n1)C1CC1` (stereo not drawn) belongs -8.76%. Then `CCN(C)CCNC(=O)Cc1nc(-c2ccco2)oc1C`, with -13.2%; and `CCOc1ncccc1NC(=O)N1CCCC1c1cc(C)no1` (stereo not drawn), with -8.02%. Take `Cc1cc(C2CCCN2C(=O)NCc2ccccn2)on1` (stereo not drawn): the cytotoxicity at 70.5 h was -16.2%. To `Cc1cc(C2CCCN2C(=O)NCc2cccnc2OC(C)C)on1` (stereo not drawn) belongs -9.53%; to `CCS(=O)(=O)CC(=O)Nc1c(C)cnn1Cc1cc(F)ccc1F`, 25.7%. Regarding `O=C(Cn1cnc(NC(=O)c2ccccn2)n1)NCc1ccccc1`, the cytotoxicity at 70.5 h is -12.9%. Consider `CC(C)(C)CC(=O)Nc1ncn(CC(=O)NCc2ccccc2)n1`, for which the cytotoxicity at 70.5 h is 25.6%.
